Data from US20260285924A1, “PEPTIDE THERAPEUTICS” (priority 2023, published 2026).

Tests used:
[1] = system: A-to-I RNA editing reporter (ADAR) in A375; assay: A-to-I PepTile (REPTILE) screen: A-to-I editing of dsRNA hairpin reporter by NGS; format: cell-based, human; details: for % A-to-I editing (IFNα): IFNα 6000 U/ml for 48 hours; for % A-to-I editing (Basal): no treatment
Excerpt: (§1) FIGS. 12A-12D. A-to-I PepTile screen. (A) Composition of A-to-I PepTile linrary screen, and schematic description of the lentiviral expression vector. (B) Experimental workflow. A375 cells were transduced at low MOI, and then treated or not with IFNα for 48 hrs. RNA was extracted and Peptide_ADARreporter RNA species were amplified and sequenced by NGS. (C) Dot plot of A-to-I PepTile library effect on A-to-I editing with or without IFNα treatment. Red line is the mean A-to-I editing of all the 8088 peptides (>100 read counts) no treatment: 25.75% IFNα: 37.6%. (D) Dot plot of A-to-I PepTile library fitness effect upon IFNα for 48 hrs.
FIGS. 17A-17F show A-to-I RNA Editing PiTile (REPTILE) screen in A375. (A) A-to-I RNA Editing PiTile (REPTILE) library design consist of fragmentation of all known ADAR1, ADAR2 interactors and all human double stranded RNA-binding protein into 40 amino acid long peptide. This library was then cloned into a lentivirus vector that also encode a DNA-encoded RNA loop reporter (A-to-I Rep) that is edited by ADAR proteins in cells at the RNA level. When the construct is expressed, the RNA loop gets edited on a single Adenosine, while the 40-mer peptide get expressed at the protein level. Then we can measure the impact of the peptide expression on the editing rate of the RNA loop reporter by sequencing (NGS and Sanger). (B) Experimental workflow of REPTILE screen in A375 cell line. Cells were transduced with the REPTILE library, and then treated for 48 hours with IFNα. Following the treatment, RNA was harvested, converted into cDNA and amplicon library containing peptide Identity (barcode) linked to the RNA loop reporter were prepared for NGS. (C) Result of the A375 REPTILE screen in the no treatment condition. Each dot represents a unique peptide that is associated with an A-to-I editing rate that was measured on the RNA loop. (D) Result of the A375 REPTILE screen in the IFNα condition. Each dot represents a unique peptide that is associated with an A-to-I editing rate that was measured on the RNA loop. Red line represent the A-to-I editing mean, Dash blue line represent 2 times the standard deviation of the % A-to-I editing across all the datasets. This cutoff was used to defined peptides hits that modulate RNA A-to-I editing. (E) Peptide A-to-I Inhibitor Hits intersection between no treatment (% A-to-I editing<15%) and IFNα (% A-to-I editing<27%) conditions. (F) Peptide A-to-I Enhancers Hits intersection between no treatment (% A-to-I editing>36%) and IFNα (% A-to-I editing>47%) conditions.
Provided herein is a screening methodology to measure the effect of small peptide on A-to-I RNA editing in situ and screen thousands of peptides in a single experiment. First, a library of peptides with the potential of impairing A-to-I editing was designed and built. ADAR enzymes edit RNA only on double-stranded RNA structures and via ADAR's double stranded RNA-Binding Domain (dsRBD). […] The A-to-I PepTile library is composed of 19 Human proteins having dsRBD and 34 known protein-protein interactors of ADAR1/2. All these proteins were tiled into 40-mer peptides every 4 amino acids (FIG. 12A). To measure A-to-I editing, a biosensor consisting of a 71 bp dsRNA hairpin structure that gets A-to-I edited at a rate of 25% in A375 melanoma cells, and ~37% upon IFNα treatment was used. This A-to-I editing reporter is fused with DNA sequence encoding for a peptide from the A-to-I PepTile library. The A-to-I PepTile plasmid pool (10304 elements) was used to produced lentiviruses and transduced A375 cells at a low multiplicity of infection (MOI) (FIG. 12B). A part of the infected cells was treated with IFNα at 6000 U/ml for 48 hours, and then bulk RNA of the basal and treated condition was harvested. RNA was then retrotranscribed into cDNA and sequenced by Next-Generation Sequencing (NGS). […]

A375 cells = assay: A-to-I PepTile screen: fitness effect upon IFNα (PepTile abundance untreated vs treated); format: cell-based, human
Excerpt: as §1
Provided herein is a screening methodology to measure the effect of small peptide on A-to-I RNA editing in situ and screen thousands of peptides in a single experiment. First, a library of peptides with the potential of impairing A-to-I editing was designed and built. ADAR enzymes edit RNA only on double-stranded RNA structures and via ADAR's double stranded RNA-Binding Domain (dsRBD). […] The A-to-I PepTile library is composed of 19 Human proteins having dsRBD and 34 known protein-protein interactors of ADAR1/2. All these proteins were tiled into 40-mer peptides every 4 amino acids (FIG. 12A). To measure A-to-I editing, a biosensor consisting of a 71 bp dsRNA hairpin structure that gets A-to-I edited at a rate of 25% in A375 melanoma cells, and ~37% upon IFNα treatment was used. This A-to-I editing reporter is fused with DNA sequence encoding for a peptide from the A-to-I PepTile library. The A-to-I PepTile plasmid pool (10304 elements) was used to produced lentiviruses and transduced A375 cells at a low multiplicity of infection (MOI) (FIG. 12B). A part of the infected cells was treated with IFNα at 6000 U/ml for 48 hours, and then bulk RNA of the basal and treated condition was harvested. RNA was then retrotranscribed into cDNA and sequenced by Next-Generation Sequencing (NGS). With the sequencing data, the A-to-I editing percentage of the RNA reporter for each PepTile is calculated since both elements are encoded on the same transcript. Moreover, with this screen one can also measure the abundance of the PepTiles between the untreated and treated conditions and determine Fitness score associated to every PepTile. To ensure a robust and more accurate A-to-I editing % estimation a cut-off of 100 read counts was set for each PepTile. […] SEQ ID NOs: 2125-2147 are A-to-I peptide inhibitors and SEQ ID NOs: 2148-2210 are A-to-I activators. In addition, 117 PepTiles were identified that either synergize (SEQ ID NOs: 2211-2243) or protect (SEQ ID NOs: 2244-2327) to IFNα-induced cell death (FIG. 12D and Table 5). These PepTiles are potential new therapeutic agents that can modulate the Interferon pathway. They may be beneficial in treating inflammatory conditions and may also enhance the effectiveness of cancer immunotherapy through synergistic effects.

[2] = IFNα 6000 U/ml for 48 hours vs untreated
[3] = A375, PepTile abundance upon IFNα treatment, negative = synthetic lethal, positive = protector

Sequence	% A-to-I editing (IFNα) [1]	% A-to-I editing (Basal) [1]	Fitness Score IFNα (A375 cells; [2])	Fitness Score IFNα (A375 cells; [3])
MRNAEFLTCNIPTSNASNNMVTTEKVENGQEPVIKLENRQE [ADAR_97]	51.11%	40.12%	-1.27	
MRPFQALPREQSPPPPLQTSSGAEVMDVGSGGDGQSELPAE [DGCR8_7]	54.04%	40.23%	0.13	
MRRDHQLREAPDTAEKAKSHLEVPLEENVNRRVLEEGSVEA [CCDC124_27]	24.35%	12.18%	1.71	
MSELNQKRPQYIKAKENTSHKIKKLEAAKKSLQNAQKHYKK [SMC1A_73]	23.54%	11.31%	-0.76	
MSESGNSARSSGISSQNSSTSDGDRSVSSQSSSSVSSQVTT [CDKN2AIP_47]	26.81%	14.82%	-1.31	
MSGTSYSGYEAAVYSAASSYYQQQQQQQKQAAAAAAAAAAT [ZFR_66]	49.01%	40.81%	2.04	2.04
MSILARLDMQRGVHGRLMDNSTSVREAAVELLGRFVLCRPQ [NIPBL_452]	50.76%	38.35%	2.31	2.31
MSKVTRAQIEDTLRRDHQLREAPDTAEKAKSHLEVPLEENV [CCDC124_24]	13.63%	12.50%	-1.31	
MSLLTGLSDSQVRAFRHTSTLAAMKLMTALVNVALNLSIHQ [STAG1_52]	58.66%	46.34%	-0.26	
MSQHRKKEADSVYGEWVPVEKNGEENKDDDNVFSSNLPSEP [SON_53]	25.27%	14.38%	1.03	
MSQVRAFRHTSTLAAMKLMTALVNVALNLSIHQDNTQRQYE [STAG1_54]	54.81%	43.52%	0.28	
MVEKAVSSAAGPLGPGDAVRRVLECVATGTLLTDGPGLQDP [ZFR2_205]	54.50%	45.00%	0.12	
MVGEYSNLEVNASWTKERWNQEFTKHQVLIMTCYVALNVLK [DICER1_31]	48.57%	37.36%	0.94	
MVISTFKKRAVEITGAGPGASSVCNSAPGSGPSSPNSSHST [HDAC5_73]	63.84%	49.71%	0.74	
MVMNLLESAGFSRSNPYYIVKQGKINQMATAPDSQRLKLLR [SMC3_31]	54.66%	41.67%	1.72	
